From ChEMBL document CHEMBL1201862, “PubChem BioAssay data set” (2004)
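All cell lines were grown in 96-well plates and treated with compound for 48 hours. Here, GI50 denotes the concentration required for 50% inhibition of growth.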 Activity calls are given as the source filed them. Rule as the data show it: active = GI50 up to about 1.1 µM and inactive = higher.

What was measured:
Assay in all cases: inhibition of tumour cell growth, NCI panel, 48 h
A549 = system: A549
CAKI-1 = system: CAKI-1
CCRF-CEM = system: CCRF-CEM
EKVX = system: EKVX
HCC 2998 = system: HCC 2998
HL-60 = system: HL-60
NCI-H460 = system: NCI-H460
NCI/ADR-RES = system: NCI/ADR-RES
PC-3 = system: PC-3
SF-268 = system: SF-268
SF-295 = system: SF-295
SK-MEL-28 = system: SK-MEL-28
SNB-19 = system: SNB-19
SNB-75 = system: SNB-75
SR = system: SR
SW-620 = system: SW-620
TK-10 = system: TK-10
U-251 = system: U-251
SN12C = system: SN12C
UACC-62 = system: UACC-62

Measured: GI50

COc1cc(/C=C/c2ccc(O)c(OC)c2)cc(OC)c1
inactive: A549 25.6 µM | CAKI-1 27.1 µM | CCRF-CEM 14.4 µM | EKVX 28.2 µM | HCC 2998 49.7 µM | HL-60 12.6 µM | NCI-H460 19 µM | NCI/ADR-RES 31 µM | PC-3 10.3 µM | SF-268 34.4 µM | SF-295 17.7 µM | SK-MEL-28 33.1 µM | SNB-19 36.4 µM | SNB-75 23.1 µM | SR 25.8 µM | SW-620 30.1 µM | TK-10 20.2 µM | U-251 19.5 µM

CC(C)(C)C(=O)Nc1cccc(-c2ccc[nH]2)n1
inactive: A549 > 100 µM | CAKI-1 > 100 µM | CCRF-CEM > 100 µM | EKVX > 85.7 µM | HCC 2998 > 100 µM | NCI-H460 > 96.8 µM | NCI/ADR-RES > 100 µM | PC-3 > 100 µM | SF-268 > 100 µM | SF-295 99.8 µM | SK-MEL-28 > 100 µM | SN12C > 100 µM | SNB-19 > 100 µM | SNB-75 > 60.8 µM | SR 67.1 µM | SW-620 > 100 µM | TK-10 > 100 µM | U-251 > 70.5 µM | UACC-62 86.9 µM

NCCN(CCN(C(=O)Nc1ccccc1)c1ccccc1)C(=O)Nc1ccccc1
inactive: A549 30.6 µM | CCRF-CEM 41.6 µM | EKVX 23.6 µM | HCC 2998 19.8 µM | HL-60 18.9 µM | NCI-H460 17.4 µM | NCI/ADR-RES 30.8 µM | PC-3 24.5 µM | SF-268 18.6 µM | SF-295 18.5 µM | SK-MEL-28 19 µM | SN12C 23.2 µM | SNB-19 28.6 µM | SNB-75 18.1 µM | SR 27.6 µM | SW-620 22.5 µM | TK-10 24.5 µM | U-251 28.9 µM | UACC-62 16.6 µM

Cc1c(N2C(=O)C(Cl)C2c2ccc(Cl)cc2)c(=O)n(-c2ccccc2)n1C (stereo unspecified)
inactive: A549 > 100 µM | CAKI-1 > 100 µM | CCRF-CEM 23.1 µM | EKVX 71 µM | HL-60 > 100 µM | NCI-H460 > 100 µM | NCI/ADR-RES > 100 µM | PC-3 > 100 µM | SF-268 > 100 µM | SF-295 > 100 µM | SN12C > 100 µM | SR 26.4 µM | SW-620 60.8 µM | TK-10 > 100 µM | U-251 35.3 µM | UACC-62 75.2 µM

COc1ccc(N)c(C(O)CCNC(C)=O)c1 (stereo unspecified)
inactive: A549 > 100 µM | CAKI-1 > 100 µM | CCRF-CEM > 100 µM | EKVX > 100 µM | HL-60 > 100 µM | NCI-H460 > 100 µM | NCI/ADR-RES > 100 µM | PC-3 > 100 µM | SF-268 > 100 µM | SF-295 > 100 µM | SN12C > 100 µM | SNB-19 > 100 µM | SNB-75 > 100 µM | SR > 100 µM | SW-620 > 100 µM | TK-10 > 100 µM | U-251 > 100 µM | UACC-62 > 100 µM

c1ccc(C[n+]2cccc(-c3cc4ccccc4[nH]3)c2)cc1
inactive: A549 91.2 µM | CAKI-1 > 100 µM | CCRF-CEM 19.9 µM | EKVX 42.8 µM | HL-60 17.6 µM | NCI-H460 25.3 µM | NCI/ADR-RES > 100 µM | PC-3 39.2 µM | SF-268 17.6 µM | SF-295 77.8 µM | SK-MEL-28 16.4 µM | SN12C 15.4 µM | SNB-19 26.5 µM | SNB-75 29.4 µM | SR 32.1 µM | SW-620 72.6 µM | TK-10 32.7 µM | U-251 34.5 µM | UACC-62 15.7 µM

COc1cc(S(=O)(=O)Nc2nc(-c3ccc(N4C(=O)CSC4c4cccs4)cc3)cs2)ccc1Cl (stereo unspecified)
inactive: A549 > 100 µM | CAKI-1 > 100 µM | CCRF-CEM 17.9 µM | HL-60 23.2 µM | NCI-H460 > 100 µM | NCI/ADR-RES > 100 µM | PC-3 88.3 µM | SF-268 37.6 µM | SF-295 > 100 µM | SK-MEL-28 > 100 µM | SN12C 25.6 µM | SNB-19 > 100 µM | SNB-75 > 100 µM | SR 28.9 µM | SW-620 40.8 µM | TK-10 > 100 µM | U-251 > 100 µM | UACC-62 83.6 µM

Cc1cc2nc3c(C#N)c4c(c(Nc5ccc(F)cc5)n3c2cc1C)CCC4
inactive: A549 > 100 µM | CAKI-1 > 100 µM | CCRF-CEM > 100 µM | EKVX > 100 µM | HL-60 > 100 µM | NCI-H460 > 100 µM | NCI/ADR-RES > 100 µM | PC-3 > 100 µM | SF-268 > 100 µM | SF-295 > 100 µM | SK-MEL-28 > 100 µM | SN12C > 100 µM | SNB-19 > 100 µM | SNB-75 > 100 µM | SR > 100 µM | SW-620 > 100 µM | TK-10 > 100 µM | U-251 > 100 µM | UACC-62 > 100 µM
